In ChEMBL document CHEMBL4732077, “Potent and orally active purine-based fetal hemoglobin inducers for treating β-thalassemia and sickle cell disease” (Eur J Med Chem, 2021):
Activity calls are given as the source filed them. No cut-off for these calls is given here.

Key:
[1] = Induction of gamma-globin gene expression in human erythrocytes at 1 uM after 3 days by RT-PCR analysis relative to control; assay type: functional, Erythrocyte; conditions: time 3 day
[2] = Induction of gamma-globin gene expression in human erythrocytes at 2 uM after 3 days by RT-PCR analysis relative to control; assay type: functional, Erythrocyte; conditions: time 3 day
[3] = Cytotoxicity against human erythrocytes assessed as cell viability at 2 uM after 3 days alamar blue assay relative to control; assay type: cell-based, Erythrocyte; conditions: time 3 day, read-out: Activity
Erythrocyte [4] = experiment: Induction of gamma-globin gene expression in human erythrocytes after 3 days by RT-PCR analysis; assay type: functional, cell-based; conditions: dose 0.06-2 µM, time 3.0 day
Erythrocyte [5] = experiment: Cytotoxicity against human erythrocytes assessed as cell viability at 4 uM after 3 days alamar blue assay; assay type: cell-based; conditions: 72 h, time 3 day
Erythrocyte [6] = experiment: Cytotoxicity against human erythrocytes assessed as cell viability at 1 uM after 3 days alamar blue assay; assay type: cell-based; conditions: 72 h, time 3 day
Erythrocyte [7] = experiment: Induction of gamma-globin gene expression in human erythrocytes at 0.5 to 1 uM after 3 days Western blot analysis; assay type: functional, cell-based; conditions: dose 0.5-1 µM, time 3.0 day
Erythrocyte [8] = experiment: Induction of gamma-globin gene expression in human erythrocytes at 0.5 uM after 3 days by RT-PCR analysis; assay type: functional, cell-based; conditions: time 3.0 day
Erythrocyte [9] = experiment: Induction of beta-globin gene expression in human erythrocytes at 0.5 uM after 3 days by RT-PCR analysis; assay type: functional, cell-based; conditions: time 3.0 day
[10] = Induction of gamma-globin gene expression in human HU-resistant primary erythrocytes at 0.5 uM after 3 days by RT-PCR analysis relative to control; assay type: functional, Erythrocyte; conditions: time 3 day
[11] = target: Histone deacetylase (Homo sapiens) (UniProt Q13547+O15379+Q9UBN7+Q92769+Q9UQL6+Q8WUI4+Q9BY41+Q96DB2+P56524+Q9UKV0+Q969S8); experiment: Inhibition of HDAC in human erythrocyte cells assessed as increase in acetylation of histone H4 at 0.5 to 1 uM after 3 days by Western blot analysis; assay type: cell-based; conditions: dose 0.5-1 µM, time 3.0 day
[12] = Induction of GATA1 gene expression in human erythrocyte at 0.5 uM after 3 days by RT-PCR analysis relative to control; assay type: functional; conditions: time 3 day
[13] = Induction of GATA1 gene expression in human erythrocyte at 1 uM after 3 days by RT-PCR analysis relative to control; assay type: functional; conditions: time 3 day
[14] = Induction of NFE2L2 gene expression in human erythrocyte at 0.5 uM after 3 days by RT-PCR analysis relative to control; assay type: functional; conditions: time 3 day
[15] = Induction of NFE2L2 gene expression in human erythrocyte at 1 uM after 3 days by RT-PCR analysis relative to control; assay type: functional; conditions: time 3 day
[16] = Downregulation of c-MYB gene expression in human erythrocyte at 0.5 uM after 3 days by RT-PCR analysis relative to control; assay type: functional; conditions: time 3 day
[17] = Downregulation of c-MYB gene expression in human erythrocyte at 1 uM after 3 days by RT-PCR analysis relative to control; assay type: functional; conditions: time 3 day
[18] = Induction of CPOX gene expression in human erythrocyte at 0.5 uM after 3 days by RT-PCR analysis relative to control; assay type: functional; conditions: time 3 day
[19] = Induction of CPOX gene expression in human erythrocyte at 1 uM after 3 days by RT-PCR analysis relative to control; assay type: functional; conditions: time 3 day
Erythrocyte [20] = experiment: Downregulation of […] expression in human erythrocyte at 1 uM after 3 days by Western blot analysis; assay type: functional, tissue-based; conditions: time 3.0 day
[21] = Half life in Sprague-Dawley rat at 5 mg/kg, iv measured upto 24 hrs by LC-MS/MS analysis; assay type: ADME, organism-based; conditions: in vivo
[22] = Clearance in Sprague-Dawley rat at 5 mg/kg, iv measured upto 24 hrs by LC-MS/MS analysis; assay type: ADME, organism-based; conditions: in vivo
[23] = Volume of distribution at steady state in Sprague-Dawley rat at 5 mg/kg, iv measured upto 24 hrs by LC-MS/MS analysis; assay type: ADME, organism-based; conditions: in vivo, read-out: Vdss
[24] = AUC (0 to infinity) in Sprague-Dawley rat at 5 mg/kg, iv measured upto 24 hrs by LC-MS/MS analysis; assay type: ADME, organism-based; design: route intravenous, dose 5 mg/kg, time <=24; conditions: in vivo
[25] = Half life in Sprague-Dawley rat at 20 mg/kg, po measured upto 24 hrs by LC-MS/MS analysis; assay type: ADME, organism-based; conditions: in vivo
[26] = Cmax in Sprague-Dawley rat at 20 mg/kg, po measured upto 24 hrs by LC-MS/MS analysis; assay type: ADME, organism-based; design: route oral, dose 20 mg/kg, time <=24; conditions: in vivo
[27] = AUC (0 to infinity) in Sprague-Dawley rat at 20 mg/kg, po measured upto 24 hrs by LC-MS/MS analysis; assay type: ADME, organism-based; design: route oral, dose 20 mg/kg, time <=24; conditions: in vivo
[28] = Oral bioavailability in Sprague-Dawley rat at 20 mg/kg measured upto 24 hrs by LC-MS/MS analysis; assay type: ADME, organism-based; conditions: in vivo
Mus musculus [29] = experiment: Antianemic effect in sickle cell disease mouse B6 model assessed as RBC level at 50 mg/kg, po twice daily, five days a week for 4 weeks (reference value: 7.23 +/- 0.75 M/uL); assay type: functional
Mus musculus [30] = experiment: Antianemic effect in sickle cell disease mouse B6 model assessed as hemoglobin level at 50 mg/kg, po twice daily, five days a week for 4 weeks (reference value: 7.46 +/- 0.7 g/dl); assay type: functional
Mus musculus [31] = experiment: Antianemic effect in sickle cell disease mouse B6 model assessed as reticulocytes level at 50 mg/kg, po twice daily, five days a week for 4 weeks (reference value: 57.34 +/- 3.67 %); assay type: functional
Mus musculus [32] = experiment: Antianemic effect in sickle cell disease mouse B6 model assessed as WBC level at 50 mg/kg, po twice daily, five days a week for 4 weeks (reference value: 34.15 +/- 5.85 K/uL); assay type: functional
Mus musculus [33] = experiment: Antianemic effect in sickle cell disease mouse B6 model assessed as neutrophils level at 50 mg/kg, po twice daily, five days a week for 4 weeks (reference value: 13.39 +/- 4.65 K/uL); assay type: functional
Mus musculus [34] = experiment: Antianemic effect in sickle cell disease mouse B6 model assessed as fetal hemoglobin level at 50 mg/kg, po twice daily, five days a week for 4 weeks (reference value: 0.2 +/- 0.02 %); assay type: functional
Mus musculus [35] = experiment: Antianemic effect in sickle cell disease mouse B6 model assessed as F-cell level at 50 mg/kg, po twice daily, five days a week for 4 weeks (reference value: 1.63 +/- 0.11 %); assay type: functional
Mus musculus [36] = experiment: Antianemic effect in sickle cell disease mouse B6 model assessed as sickle cell level at 50 mg/kg, po twice daily, five days a week for 4 weeks (reference value: 16.78 +/- 1.9 %); assay type: functional
Mus musculus [37] = experiment: Antianemic effect in sickle cell disease mouse B6 model assessed as RBC level at 100 mg/kg, po twice daily, five days a week for 4 weeks (reference value: 7.23 +/- 0.75 M/uL); assay type: functional
Mus musculus [38] = experiment: Antianemic effect in sickle cell disease mouse B6 model assessed as hemoglobin level at 100 mg/kg, po twice daily, five days a week for 4 weeks (reference value: 7.46 +/- 0.7 g/dl); assay type: functional
Mus musculus [39] = experiment: Antianemic effect in sickle cell disease mouse B6 model assessed as reticulocytes level at 100 mg/kg, po twice daily, five days a week for 4 weeks (reference value: 57.34 +/- 3.67 %); assay type: functional
Mus musculus [40] = experiment: Antianemic effect in sickle cell disease mouse B6 model assessed as WBC level at 100 mg/kg, po twice daily, five days a week for 4 weeks (reference value: 34.15 +/- 5.85 K/uL); assay type: functional
Mus musculus [41] = experiment: Antianemic effect in sickle cell disease mouse B6 model assessed as neutrophils level at 100 mg/kg, po twice daily, five days a week for 4 weeks (reference value: 13.39 +/- 4.65 K/uL); assay type: functional
Mus musculus [42] = experiment: Antianemic effect in sickle cell disease mouse B6 model assessed as fetal hemoglobin level at 100 mg/kg, po twice daily, five days a week for 4 weeks (reference value: 0.2 +/- 0.02 %); assay type: functional
Mus musculus [43] = experiment: Antianemic effect in sickle cell disease mouse B6 model assessed as F-cell level at 100 mg/kg, po twice daily, five days a week for 4 weeks (reference value: 1.63 +/- 0.11 %); assay type: functional
Mus musculus [44] = experiment: Antianemic effect in sickle cell disease mouse B6 model assessed as sickle cell level at 100 mg/kg, po twice daily, five days a week for 4 weeks (reference value: 16.78 +/- 1.9 %); assay type: functional
[45] = Water solubility of compound at pH 7.4 after 24 hrs by LC/MS analysis; assay type: physicochemical; conditions: buffer, pH 7.4, 24 h
[46] = Induction of gamma-globin gene expression in human erythrocytes at 100 uM after 3 days by RT-PCR analysis relative to control; assay type: functional, Erythrocyte; conditions: time 3 day
[47] = Cytotoxicity against human erythrocytes assessed as cell viability after 3 days alamar blue assay; assay type: cell-based, Erythrocyte; conditions: time 3 day
Erythrocyte [48] = experiment: Induction of gamma-globin gene expression in human erythrocytes at 147 uM after 3 days by RT-PCR analysis; assay type: functional, cell-based; conditions: time 3.0 day
Erythrocyte [49] = experiment: Induction of beta-globin gene expression in human erythrocytes at 147 uM after 3 days by RT-PCR analysis; assay type: functional, cell-based; conditions: time 3.0 day
Mus musculus [50] = experiment: Antianemic effect in sickle cell disease mouse B6 model assessed as RBC level at 100 mg/kg, ip once daily, five days a week for 4 weeks (reference value: 7.23 +/- 0.75 M/uL); assay type: functional
Mus musculus [51] = experiment: Antianemic effect in sickle cell disease mouse B6 model assessed as hemoglobin level at 100 mg/kg, ip once daily, five days a week for 4 weeks (reference value: 7.46 +/- 0.7 g/dl); assay type: functional
Mus musculus [52] = experiment: Antianemic effect in sickle cell disease mouse B6 model assessed as reticulocytes level at 100 mg/kg, ip once daily, five days a week for 4 weeks (reference value: 57.34 +/- 3.67 %); assay type: functional
Mus musculus [53] = experiment: Antianemic effect in sickle cell disease mouse B6 model assessed as WBC level at 100 mg/kg, ip once daily, five days a week for 4 weeks (reference value: 34.15 +/- 5.85 K/uL); assay type: functional
Mus musculus [54] = experiment: Antianemic effect in sickle cell disease mouse B6 model assessed as neutrophils level at 100 mg/kg, ip once daily, five days a week for 4 weeks (reference value: 13.39 +/- 4.65 K/uL); assay type: functional
Mus musculus [55] = experiment: Antianemic effect in sickle cell disease mouse B6 model assessed as fetal hemoglobin level at 100 mg/kg, ip once daily, five days a week for 4 weeks (reference value: 0.2 +/- 0.02 %); assay type: functional
Mus musculus [56] = experiment: Antianemic effect in sickle cell disease mouse B6 model assessed as F-cell level at 100 mg/kg, ip once daily, five days a week for 4 weeks (reference value: 1.63 +/- 0.11 %); assay type: functional
Mus musculus [57] = experiment: Antianemic effect in sickle cell disease mouse B6 model assessed as sickle cell level at 100 mg/kg, ip once daily, five days a week for 4 weeks (reference value: 16.78 +/- 1.9 %); assay type: functional

CCN1CCN(c2nc(Nc3cccc(NC(=O)C#Cc4ccc(C)cc4)c3)c3ncn(CC)c3n2)CC1.Cl.Cl
fold change (FC) [1]: 3.8
fold change (FC) [2]: 4.8
viability at 72 h, 2 µM [3]: 72%
Activity (Erythrocyte [4]): Dose-dependent effect
Activity (Erythrocyte [5]): Toxic
Activity (Erythrocyte [6]): Non-Toxic
Activity (Erythrocyte [7]): Active
Activity (Erythrocyte [8]): Active
Activity (Erythrocyte [9]): inactive
fold change (FC) [10]: 2
inhibition [11]: inactive
fold change (FC) [12]: 1.6
fold change (FC) [13]: 2.3
fold change (FC) [14]: 1.7
fold change (FC) [15]: 2.3
fold change (FC) [16]: 0.7
fold change (FC) [17]: 0.6
fold change (FC) [18]: 1.8
fold change (FC) [19]: 2.2
Activity (Erythrocyte [20]): Active
half-life [21]: 432 min
clearance [22]: 8.2 mL/min/kg
Vd [23]: 0.3 L/kg
AUC(0-inf) [24]: 8860 ng·h/mL
half-life [25]: 228 min
Cmax [26]: 2730 ng/mL
AUC(0-inf) [27]: 9000 ng·h/mL
bioavailability [28]: 25%
Activity (Mus musculus [29]): 7.78 M/uL
Activity (Mus musculus [30]): 8.15 g/dL
Activity (Mus musculus [31]): 58.98%
Activity (Mus musculus [32]): 35.85 K/uL
Activity (Mus musculus [33]): 15.05 K/uL
Activity (Mus musculus [34]): 0.28%
Activity (Mus musculus [35]): 2.15%
Activity (Mus musculus [36]): 10%
Activity (Mus musculus [37]): 8.05 M/uL
Activity (Mus musculus [38]): 8.05 g/dL
Activity (Mus musculus [39]): 54.66%
Activity (Mus musculus [40]): 44.12 K/uL
Activity (Mus musculus [41]): 15.64 K/uL
Activity (Mus musculus [42]): 0.3%
Activity (Mus musculus [43]): 2.42%
Activity (Mus musculus [44]): 8.8%
solubility [45]: 3380 ng/mL

NC(=O)NO [HYDROXYUREA]
fold change (FC) [46]: 2.5
CC50 at 72 h [47]: 147 µM
Activity (Erythrocyte [48]): Active
Activity (Erythrocyte [49]): Active
Activity (Mus musculus [50]): 6.34 M/uL
Activity (Mus musculus [51]): 6.7 g/dL
Activity (Mus musculus [52]): 50.92%
Activity (Mus musculus [53]): 23.02 K/uL
Activity (Mus musculus [54]): 9.75 K/uL
Activity (Mus musculus [55]): 0.23%
Activity (Mus musculus [56]): 1.3%
Activity (Mus musculus [57]): 14.7%
